Measured values: patent US20220249661A1, “Pharmaceutical composition for preventing or treating inflammatory bowel disease comprising Tumor necrosis factor alpha inhibitor and Prostaglandin E2” (SAMSUNG LIFE PUBLIC WELFARE FOUNDATION, priority 2021, published 2022)

Columns and labels:
Assay type in all cases: cell-based, human
[1] = tested on: Crohn's disease patient-derived intestinal organoids; assay: MTT assay (cell viability), Crohn's disease patient-derived organoids
Method: (§1) To evaluate the cell viability of organoids, 100 μL of basal medium containing MTT (3-[4,5-dimethylthiazol-2-yl]-2,5-diphenyltetrazolium bromide) (Sigma-Aldrich) at a concentration of 500 μg/ml was added to each well of a culture plate and incubated for 2 hours at 37° C. To remove the medium and dissolve the Matrigel, 10 μL of 21 SDS (sodium dodecyl sulfate) solution was added thereto, followed by incubation for 2 hours. After adding 100 μL of detergent reagent, the organoids were further incubated for 1 hour, and the absorbance was measured at 562 nm for quantification. Statistical analysis was performed by ANOVA using Bonferroni's multiple comparison test (* p<0.05, ** p<0.01 and *** p<0.001).
(§2) To evaluate cell viability, MTT assay was performed in the same manner as in Experimental Example 2. Statistical analysis was performed by ANOVA using Bonferroni's multiple comparison test (* p<0.05, ** p<0.01 and *** p<0.001).
(§3) FIGS. 20 and 21 show the results of analyzing the changes in organoid reconstitution rate and cell viability of TNFα-treated Crohn's disease patient-derived organoids by infliximab and PGE2. Cases in need of actual infliximab treatment or potential PGE2 treatment are Crohn's disease patients, and based on the information obtained from the normal person-derived organoids, the effects of infliximab and PGE2 on Crohn's disease patient-derived organoids with reduced intestinal epithelial regeneration ability were evaluated.

[2] = tested on: Crohn's disease patient-derived organoids; assay: Wound healing assay, two-dimensional Crohn's disease patient-derived organoid monolayers
Method: (§4) For matrix coating, each well of the 24-well plate was coated at 37° C. for 1 hour with 500 μL of Matrigel diluted at a concentration of 51 in the basal medium. For two-dimensional culture, organoids in the three-dimensional culture were digested into single cells using TrypLE Express (Thermo Fisher). The digested cells were resuspended in the basal medium and seeded into Matrigel-coated wells.
(§5) For wound healing assay, 5×10^4 cells were seeded in wells of a 24-well plate containing inserts of CytoSelect™ 24-Well Wound Healing Assay. The two-dimensional organoid monolayers were cultured in maintenance medium until confluence was reached. The inserts were then carefully removed to produce 0.9-mm-diameter wounds, and 500 μL of fresh differentiation medium was added to each well. Then, the cells in the wound were monitored using a phase-contrast microscope at 0, 4, 8, 16, and 24 hours. At each time point, the area of the non-healed wound was measured in 3 different regions. Statistical analysis was performed by ANOVA using Bonferroni's multiple comparison test (* p<0.05, ** p<0.01 and *** p<0.001).
In addition, wound healing assay was performed in the same manner as in Experimental Example 7.
For the Crohn's disease patient-derived organoids of each experimental group, 30 ng/mL of human recombinant TNFα, or 10 nM of PGE2, and 1 or 10 μg/mL of infliximab were added to the culture medium daily. Statistical analysis was performed by ANOVA using Bonferroni's multiple comparison test (** p<0.01 and *** p<0.001).

LGR5 [3] = assay: FACS analysis for LGR5 in Crohn's disease patient-derived organoids; conditions: 30 ng/mL TNFα + high concentration (infliximab 10 μg/mL or PGE2 10 nM)
Method: For the Crohn's disease patient-derived organoids of each experimental group, 30 ng/mL of human recombinant TNFα, or 10 nM of PGE2, and 1 or 10 μg/mL of infliximab were added to the culture medium daily.
To prepare single-cell suspensions from organoids, organoids were incubated with TrypLE Express in a water bath at 37° C. for 30 minutes. Then, the cells were washed with basal medium and collected by filtration through a 40-μm cell strainer. Flow cytometry for detecting the marker was performed using 1×10^5 cells. Cells were incubated with human Lgr5/GPR49 antibody (R&D Systems) in FACS buffer for 30 min. Unbound antibodies were washed out, and the cells were incubated with Alexa Fluor 488-conjugated anti-mouse immunoglobulin G secondary antibody (Thermo Fisher) for 30 minutes. The cells were then washed, resuspended in FACS buffer, and analyzed on the FACS Aria III instrument (BD Biosciences) to evaluate LGR5+ ISCs population.

[4] = tested on: normal person-derived intestinal organoids; assay: Organoid reconstitution assay, normal person-derived organoids
Method: (§6) In order to evaluate the organoid-forming ability of intestinal crypts obtained from normal persons and patients with Crohn's disease, 100 intestinal crypts per 25 μL of Matrigel were dispensed into maintenance medium. The culture medium was changed once every two days. The number of viable organoids and enteroids per well was counted under a microscope (CK40, Olympus). The organoid-forming efficiency was calculated as the ratio of available organoids per 100 intestinal crypts. The organoid reconstitution rate was calculated by counting the number of organoids on day 4 and the number of organoids on day 10. Statistical analysis was performed by ANOVA using Bonferroni's multiple comparison test (* p<0.05, ** p<0.01 and *** p<0.001).
(§7) Normal person-derived organoids were cultured in a maintenance medium for 2 days to obtain a stable number of organoids, and then the medium was replaced with a differentiation medium every 2 days. For each experimental group, human recombinant TNFα and PGE2 (Cayman Chemical Company) or infliximab were added to the culture medium every day. The organoid reconstitution rate was calculated by comparing the number of organoids on day 4 and the number of organoids on day 10.

[5] = tested on: Crohn's disease patient-derived intestinal organoids; assay: Organoid reconstitution assay, Crohn's disease patient-derived organoids
Method: as §6, §7, §3

LGR5 [6] = assay: qPCR for LGR5 in Crohn's disease patient-derived organoids; conditions: TNFα 0, 30 or 100 ng/mL + high concentration (infliximab 10 μg/mL or PGE2 10 nM)
Method: For the Crohn's disease patient-derived organoids of each experimental group, 0, 30 or 100 ng/mL of human recombinant TNFα, 0, 5 or 10 nM of PGE2, and 0, 1 or 10 μg/mL of infliximab were added to the culture medium daily.
Total RNA was extracted from intestinal organoids using the RNeasy Mini Kit (QIAGEN). One-step qPCR was performed using the following primers together with One Step PrimeScript™ III RT-qPCR Mix (Takara): LGR5 primers (forward: 5′-[…]-3′, reverse: 5′-[…]-3′). Statistical analysis was performed by ANOVA using Bonferroni's multiple comparison test (* p<0.05 and *** p<0.001).

LGR5 [7] = assay: Immunohistochemistry, LGR5+ cells per organoid, normal person-derived organoids; conditions: TNFα-treated vs TNFα-untreated
Method: (§8) After removing the culture medium, the organoids were washed with PBS and fixed in cold 4% paraformaldehyde at room temperature for 30 minutes. The fixed organoids were washed with PBS and embedded in HistoGel (Thermo Fisher). HistoGel blocks were used for paraffin embedding and sectioned for histologic examination and IHC. Histologic evaluation was performed using hematoxylin-eosin-stained sections. After heating-induced epitope retrieval with citrate buffer, IHC was performed using the following antibodies: cleaved caspase-3 (Asp175, 1:200 dilution, Cell Signaling), E-cadherin (1:100 dilution, Abcam), and LGR5 (1:400 dilution, Abcam). The number of LGR5+ cells per organoid in each of the TNFα-treated group (n=10) and the TNFα-untreated group (n=10) was counted, and statistical analysis was performed by ANOVA using Bonferroni's multiple comparison test (*** p<0.001).

[8] = tested on: normal person-derived organoids; assay: EdU assay (cell proliferation), normal person-derived organoids; conditions: 30 ng/mL TNFα vs TNFα-untreated
Method: (§9) To evaluate the cell proliferation of organoids, each organoid was incubated for 2 hours in a medium containing 10 μM of EdU (5-ethynyl-2′-deoxyuridine) (Abcam), and then fixed with cold 41 paraformaldehyde (Biosesang). EDU incorporation in DNA was detected using Click-iT™ EdU Alexa Fluor® 488 imaging kit (Thermo Fisher). The number of EDU positive (+) cells in the organoids was counted using a confocal microscope (LSM 800, Carl Zeiss). Statistical analysis was performed by ANOVA using Bonferroni's multiple comparison test (* p<0.05 and *** p<0.001).

[9] = tested on: Crohn's disease patient-derived organoids; assay: Double immunofluorescence for CC3 and TUNEL, Crohn's disease patient-derived organoids; conditions: 30 ng/mL TNFα; vs normal person-derived organoids
Method: (§10) Cell death by TNFα occurs through apoptosis or necroptosis. CC3 (cleaved caspase-3) is a marker capable of detecting cells in which apoptosis has occurred, and TUNEL staining can detect DNA fragmented due to apoptosis, and thus detect cells in which apoptosis or necroptosis has occurred. Therefore, CC3+ and TUNEL+ cells are cells in which apoptosis has occurred, and CC3− and […] cells are cells in which necroptosis has occurred.
(§11) CC3 staining was performed using primary rabbit antibodies specific for CC3 and a goat anti-rabbit secondary antibody conjugated to Alexa 594 fluorochrome (red fluorescence). In TUNEL staining, In Situ Cell Death Detection Kit (Merck) was used for the same sections in CC3 staining, and then fluorescein-labeled dUTP (green fluorescence) was used. DAPI was used to stain intracellular DNA. Statistical analysis was performed by ANOVA using Bonferroni's multiple comparison test (*** p<0.001).

LGR5 [10] = assay: Immunohistochemistry, LGR5+ cells per organoid, Crohn's disease patient-derived organoids; conditions: TNFα-treated; vs normal person-derived organoids
Method: as §8

[11] = tested on: normal person-derived intestinal organoids; assay: MTT assay (cell viability), normal person-derived organoids
Method: as §1, §2

[12] = tested on: Crohn's disease patient-derived organoids; assay: EdU assay (cell proliferation), Crohn's disease patient-derived organoids; conditions: 30 ng/mL TNFα; vs normal person-derived organoids
Method: as §9

[13] = tested on: normal person-derived organoids; assay: Double immunofluorescence for CC3 and TUNEL, normal person-derived organoids; conditions: 30 ng/mL TNFα vs TNFα-untreated
Method: as §10, §11

[14] = tested on: normal person-derived organoids; assay: Wound healing assay, two-dimensional normal person-derived organoid monolayers; conditions: TNFα-treated; 0-24 hours
Method: as §4, §5

[15] = 30 or 100 ng/mL TNFα + high concentration (infliximab 10 μg/mL, PGE2 10 nM)
[16] = 30 ng/mL TNFα + high concentration (infliximab 10 μg/mL or PGE2 10 nM), after 16 hours
[17] = TNFα 30 and 100 ng/mL + high concentration (infliximab 10 μg/mL or PGE2 10 nM)
[18] = 30 ng/mL TNFα vs TNFα-untreated
[19] = 30 or 100 ng/mL human recombinant TNFα
[20] = 0, 30 and 100 ng/mL TNFα, dependence on concentration

infliximab was tested, and the “cell viability (MTT)” value [1, 15] was “levels similar to those of TNFα-untreated normal person-derived organoids”, the unhealed wound area [2, 16] was “reduced, compared to when the organoids were treated with TNFα alone” and the “LGR5 expression (FACS, LGR5+ ISCs population)” value (LGR5 [3]) was “no difference in LGR5 expression from when the organoids were treated with TNFα”. For the same compound, the organoid reconstitution rate [4, 17] was “the restoration of the organoid reconstitution rates was improved”, the organoid reconstitution rate [5, 15] was “levels similar to those of TNFα-untreated normal person-derived organoids” and the organoid reconstitution rate ([5]; TNFα + low concentration infliximab (1 μg/mL) alone) was “did not completely restore”. For the same compound, the “LGR5 expression (qPCR)” value (LGR5 [6]) was “no difference in LGR5 expression depending on the concentration of TNFα”.
With TNFα the “cell viability (MTT)” value [1, 18] was “decreased in both the jejunum and the ileum”, the apoptosis [1, 19] was “increased in a concentration-dependent manner” and the unhealed wound area ([2]; TNFα alone, 0-24 hours) was “no significant decrease in the unhealed wound area even over time”. For the same compound, the “number of LGR5+ cells per organoid” value (LGR5 [7]) was “increased”, the “number of EdU+ cells” value [8] was “TNFα-untreated organoids increased compared to that in TNFα-treated organoids” and the “number of CC3−, TUNEL+ and CC3+, TUNEL+ cells (cell death)” value [9] was “necroptosis more actively occurred than that in the normal person-derived organoids”. For the same compound, the “number of LGR5+ cells per organoid” value (LGR5 [10]) was “decreased in the Crohn's disease patient-derived organoids compared to the normal person-derived organoids”, the “cell viability (MTT)” value [11, 20] was “also decreased” and the “cell viability (MTT)” value [11, 18] was “decreased in both the jejunum and the ileum”. For the same compound, the “number of EdU+ cells” value [12] was “decreased compared to that of the normal person-derived organoids”, the organoid reconstitution rate [4, 20] was “decreased” and the organoid reconstitution rate ([4]; 30 ng/mL TNFα vs not treated, differentiation medium 10 days, jejunum and ileum) was “decreased”. The organoid reconstitution rate ([5]; 30 ng/mL TNFα, differentiation medium 10 days, jejunum and ileum) was “decreased compared to those of the normal person-derived organoids”, the organoid reconstitution rate [5, 19] was “decreased in a concentration-dependent manner” and the “number of CC3−, TUNEL+ and CC3+, TUNEL+ cells (cell death)” value [13] was “increased”. The unhealed wound area [14] was “the wound area was recovered after 16 hours”.
`CCCCC[C@H](O)/C=C/[C@H]1[C@H](O)CC(=O)[C@@H]1C/C=C\CCCC(=O)O` [PGE2, prostaglandin E2] was tested, and the “cell viability (MTT)” value [1, 15] was “levels similar to those of TNFα-untreated normal person-derived organoids”, the unhealed wound area [2, 16] was “reduced, compared to when the organoids were treated with TNFα alone” and the “cell viability (MTT)” value ([11]; 100 ng/mL TNFα + 10 nM PGE2) was “significantly improved compared to when the organoids were not treated with PGE2”. The “LGR5 expression (FACS, LGR5+ ISCs population)” value (LGR5 [3]) was “increased”, the organoid reconstitution rate ([4]; 100 ng/mL TNFα + 10 nM PGE2) was “significantly improved compared to when the organoids were not treated with PGE2” and the organoid reconstitution rate [4, 17] was “the restoration of the organoid reconstitution rates was improved”. For the same compound, the organoid reconstitution rate [5, 15] was “levels similar to those of TNFα-untreated normal person-derived organoids” and the “LGR5 expression (qPCR)” value (LGR5 [6]) was “increased”.
